# In patent publication US20260285880A1, “SUBSTITUTED DIHYDROTHIENOPYRIMIDINE COMPOUND, PREPARATION METHOD THEREFOR, AND USE THEREOF” (SHANGHAI YIDI BIOTECHNOLOGY CO., LTD., priority 2023, published 2026):
# Tests used:
# Flpin-293-PDE4B2 cells = Flpin-293-PDE4B2 cells (Homo sapiens, UniProt Q07343); test: cell-based; conditions: for inhibition at 0.01 µM: read-out: Cell Inhibition % @10 nM, 10 nM, Flpin-293-PDE4B2 cells; for inhibition at 0.1 µM: read-out: Cell Inhibition % @100 nM, 100 nM, Flpin-293-PDE4B2 cells; for inhibition at 0.001 µM: read-out: Cell Inhibition % @1 nM, 1 nM, Flpin-293-PDE4B2 cells
# PDE4B2 = PDE4B2 (Homo sapiens, UniProt Q07343); conditions: read-out: PDE4B2 IC50; enzyme assay
# PDE4B2, sequence (Q07343 1-564 isoform Q07343-2, species assumed): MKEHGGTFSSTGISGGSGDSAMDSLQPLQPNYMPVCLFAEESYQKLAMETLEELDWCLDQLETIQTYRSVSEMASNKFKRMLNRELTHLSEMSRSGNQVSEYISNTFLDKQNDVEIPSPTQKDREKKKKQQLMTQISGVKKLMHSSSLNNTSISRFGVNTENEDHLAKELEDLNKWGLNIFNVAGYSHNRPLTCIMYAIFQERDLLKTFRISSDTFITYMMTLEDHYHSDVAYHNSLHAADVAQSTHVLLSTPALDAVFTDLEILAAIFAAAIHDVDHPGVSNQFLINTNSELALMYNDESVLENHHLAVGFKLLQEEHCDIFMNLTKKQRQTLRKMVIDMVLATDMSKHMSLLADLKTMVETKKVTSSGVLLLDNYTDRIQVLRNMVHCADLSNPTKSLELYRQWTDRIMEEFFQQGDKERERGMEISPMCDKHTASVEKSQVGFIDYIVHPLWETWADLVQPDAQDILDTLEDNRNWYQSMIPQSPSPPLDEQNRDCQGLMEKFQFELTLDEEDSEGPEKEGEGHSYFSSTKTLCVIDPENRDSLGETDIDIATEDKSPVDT
# Flpin-293-PDE4B2 cells, sequence (Q07343 1-564 isoform Q07343-2): as the sequence (Q07343 1-564 isoform Q07343-2, species assumed) above
inhibition at 0.01 µM (Flpin-293-PDE4B2 cells) [%],inhibition at 0.1 µM (Flpin-293-PDE4B2 cells) [%],inhibition at 0.001 µM (Flpin-293-PDE4B2 cells) [%],IC50 (PDE4B2) [nM],SMILES
96.2,101,41.5,–,CC(=O)N1CC[C@H](Nc2nc(N3CCc4cc(N5CCCC5)ccc4[C@@H]3C)nc3c2[S+]([O-])CC3)C1 (stereo partly drawn) [Compound 222]
44.4,98.9,10.7,–,C[C@H]1c2ccc(N3CCC(F)(F)C3)cc2CCN1c1nc2c(c(NC3(CO)CCC3)n1)[S+]([O-])CC2 (stereo partly drawn) [Compound 224]
87.2,100,23.1,–,C[C@H]1c2ccc(N3CCCC3)cc2CCN1c1nc2c(c(NC3CS(=O)(=O)C3)n1)[S+]([O-])CC2 (stereo partly drawn) [Compound 204]
16.9,73.4,2.17,–,[O-][S+]1CCc2nc(N3CC[C@H]4c5ccc(Cl)cc5OC[C@H]4C3)nc(NC3(CO)CCC3)c21 (stereo partly drawn) [Compound 116]
6.68,25.4,-0.97,–,O=C(O)Cc1ccc(Nc2nc(N3CCc4cc(Cl)ccc4C3)nc3c2[S@@+]([O-])CC3)cc1 [Compound 128]
40.6,98,3.68,–,[O-][S+]1CCc2nc(N3CCc4cc(N5CCCC5)cc(F)c4C3)nc(NC3(CO)CCC3)c21 (stereo not drawn) [Compound 182]
15.1,64.1,1.8,–,C[C@H]1c2ccc(N3CCCC3)cc2CCN1c1nc2c(c(Nc3cn(C)nn3)n1)[S+]([O-])CC2 (stereo partly drawn) [Compound 214]
17.3,61.6,5.32,–,[O-][S+]1CCc2nc(N3CC[C@H]4c5cnc(Cl)cc5OC[C@@H]4C3)nc(NC3(CO)CCC3)c21 (stereo partly drawn) [Compound 117]
46.8,76.1,12,0.692,CN1C[C@H]2C[C@@H]1CN2c1ccc2c(c1)CCN(c1nc3c(c(NC4(CO)CCC4)n1)[S+]([O-])CC3)C2 (stereo partly drawn) [Compound 155]
85.1,101,14.8,–,COC[C@H]1CCCN1c1ccc2c(c1)CCN(c1nc3c(c(NC4(CO)CCC4)n1)[S+]([O-])CC3)C2 (stereo partly drawn) [Compound 146]
47.7,97.3,6,–,[O-][S+]1CCc2nc(N3CCc4c(ncc5cc(Cl)ccc45)C3)nc(NC3(CO)CCC3)c21 (stereo not drawn) [Compound 100]

# Further lines, the molecule ahead of its results:
SMILES,inhibition at 0.01 µM (Flpin-293-PDE4B2 cells) [%],inhibition at 0.1 µM (Flpin-293-PDE4B2 cells) [%],inhibition at 0.001 µM (Flpin-293-PDE4B2 cells) [%],IC50 (PDE4B2) [nM]
[O-][S+]1CCc2nc(N3CCc4cccc(Cl)c4C3)nc(NC3(CO)CCC3)c21 (stereo not drawn) [Compound 21],18.8,79.2,–,–
[O-][S+]1CCc2nc(N3CCc4ccc(Cl)cc4CC3)nc(NC3(CO)CCC3)c21 (stereo not drawn) [Compound 34],14,62,–,–
[O-][S+]1CCc2nc(N3CCc4cc(-n5ccnc5)ccc4C3)nc(NC3(CO)CCC3)c21 (stereo not drawn) [Compound 90],65.8,97.2,15,–
CS(=O)(=O)c1ccc2c(c1)CCN(c1nc3c(c(NC4(CO)CCC4)n1)[S+]([O-])CC3)C2 (stereo not drawn) [Compound 93],61,94.2,14,–
[O-][S+]1CCc2nc(N3Cc4ccc(Br)cc4C3)nc(NC3(CO)CCC3)c21 (stereo not drawn) [Compound 59],42.6,85.8,–,–
Cn1ccc(-c2ccc3c(c2)CCN(c2nc4c(c(NC5(CO)CCC5)n2)[S+]([O-])CC4)C3)n1 (stereo not drawn) [Compound 77],99.4,101,61,–
[O-][S+]1CCc2nc(N3CCc4cc(Cl)c(F)cc4C3)nc(NC3(CO)CCC3)c21 (stereo not drawn) [Compound 96],15.7,84.8,-2.7,–
[O-][S+]1CCc2nc(N3CCc4cc(I)ccc4C3)nc(NC3(CO)CCC3)c21 (stereo not drawn) [Compound 67],47.4,96.4,14.2,–
[O-][S+]1CCc2nc(N3CCc4ccc(Cl)cc4C3)nc(NC3(CO)CCC3)c21 (stereo not drawn) [Compound 20],14.2,69.9,–,–
[O-][S+]1CCc2nc(N3CCc4cc(N5CC(F)C5)ccc4C3)nc(NC3(CO)CCC3)c21 (stereo not drawn) [Compound 89],37.4,95.3,3.47,–
[O-][S+]1CCc2nc(N3CCc4cc(-c5cnco5)ccc4C3)nc(NC3(CO)CCC3)c21 (stereo not drawn) [Compound 85],97,101,41.7,–
Cn1c2c(c3ccc(Cl)cc3c1=O)CCN(c1nc3c(c(NC4(CO)CCC4)n1)[S+]([O-])CC3)C2 (stereo not drawn) [Compound 98],46.7,95.8,-1.71,–
